The source made the active and inactive calls. No cut-off for these calls is given here.
Assays:
LNCaP [1] = test: Antiproliferative activity against AR-positive human LNCAP cells assessed as cell viability at 40 uM measured after 72 hrs by resazurin dye based fluorescence assay relative to control; type: functional; conditions: read-out: Activity
LAPC4 [2] = test: Antiproliferative activity against AR-positive human LAPC4 cells assessed as cell viability at 40 uM measured after 72 hrs by resazurin dye based fluorescence assay relative to control; type: functional; conditions: LAPC4, 72 h, read-out: Activity
[3] = biological target: T1, Androgen receptor (Homo sapiens) (UniProt P10275); conditions: at 10 µM
T1 sequence (whole entry): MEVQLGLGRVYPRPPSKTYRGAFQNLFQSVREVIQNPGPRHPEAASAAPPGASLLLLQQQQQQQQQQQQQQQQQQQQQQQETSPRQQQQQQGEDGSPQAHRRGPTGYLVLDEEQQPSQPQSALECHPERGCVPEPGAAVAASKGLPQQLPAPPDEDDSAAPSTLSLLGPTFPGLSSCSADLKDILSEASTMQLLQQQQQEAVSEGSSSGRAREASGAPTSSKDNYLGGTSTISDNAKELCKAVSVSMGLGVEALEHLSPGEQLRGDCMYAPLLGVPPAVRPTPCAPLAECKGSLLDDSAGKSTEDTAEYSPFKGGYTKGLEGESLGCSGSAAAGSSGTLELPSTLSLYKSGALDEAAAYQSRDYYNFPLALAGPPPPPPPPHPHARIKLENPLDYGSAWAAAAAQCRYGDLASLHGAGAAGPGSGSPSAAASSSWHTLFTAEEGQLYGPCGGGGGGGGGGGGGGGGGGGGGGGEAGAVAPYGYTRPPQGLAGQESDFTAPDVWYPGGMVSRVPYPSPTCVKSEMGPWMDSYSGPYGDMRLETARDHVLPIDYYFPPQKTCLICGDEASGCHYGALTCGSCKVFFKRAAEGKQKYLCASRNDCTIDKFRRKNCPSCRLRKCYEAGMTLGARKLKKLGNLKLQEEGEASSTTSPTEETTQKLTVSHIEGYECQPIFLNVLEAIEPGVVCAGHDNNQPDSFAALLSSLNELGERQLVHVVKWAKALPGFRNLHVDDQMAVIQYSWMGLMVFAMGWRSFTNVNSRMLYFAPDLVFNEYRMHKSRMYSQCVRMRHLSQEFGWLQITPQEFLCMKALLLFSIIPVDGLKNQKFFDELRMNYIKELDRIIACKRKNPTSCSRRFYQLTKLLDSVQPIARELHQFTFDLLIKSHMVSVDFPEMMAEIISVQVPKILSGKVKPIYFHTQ
Description: Inhibition of AR transcriptional activity in AR-positive human 22Rv1 cells harboring ARE14 construct assessed as suppression of PSA expression at 10 uM after 24 hrs by immunoblot analysis

[4] = biological target: T1, Androgen receptor (Homo sapiens); test: Inhibition of R1881 induced-AR transcriptional activity in AR-positive human 22Rv1 cells harboring ARE14 construct after 24 hrs by luciferase assay
LAPC4 [5] = test: Antiproliferative activity against AR-positive human LAPC4 cells assessed as growth inhibition measured after 72 hrs by resazurin dye based fluorescence assay; type: functional; conditions: LAPC4, 72 h
CWR22R [6] = test: Antiproliferative activity against human AR-positive 22Rv1 cells harboring ARE14 construct assessed as growth inhibition measured after 72 hrs by resazurin dye based fluorescence assay; type: functional; conditions: 22Rv1, 72 h
VCaP [7] = test: Antiproliferative activity against AR-positive human VCaP cells assessed as growth inhibition measured after 72 hrs by resazurin dye based fluorescence assay; type: functional
PC-3 [8] = test: Antiproliferative activity against AR-negative human PC3 cells assessed as cell viability at 40 uM measured after 72 hrs by resazurin dye based fluorescence assay relative to control; type: functional; conditions: PC-3, 72 h, read-out: Activity
[9] = biological target: T1, Androgen receptor (Homo sapiens); test: Inhibition of AR transcriptional activity in AR-positive human VCaP cells assessed as NKX3.1 protein expression at 5 to 20 uM after 24 hrs by immunoblot analysis; type: cell-based
CWR22R [10] = test: Antiproliferative activity against AR-positive human 22Rv1 cells harboring ARE14 construct assessed as cell viability at 40 uM measured after 72 hrs by resazurin dye based fluorescence assay relative to control; type: functional; conditions: 22Rv1, 72 h, read-out: Activity
[11] = biological target: T1, Androgen receptor (Homo sapiens); test: Inhibition of R1881 induced-AR transcriptional activity in AR-positive human 22Rv1 cells harboring ARE14 construct assessed as luciferase activity at 10 uM after 24 hrs by luciferase assay relative to control; set-up: scale not given: the % may be the effect or the level left
VCaP [12] = test: Antiproliferative activity against AR-positive human VCaP cells assessed as cell viability at 40 uM measured after 72 hrs by resazurin dye based fluorescence assay relative to control; type: functional; conditions: read-out: Activity
[13] = biological target: T1, Androgen receptor (Homo sapiens); conditions: at 10 µM; remark: listed apart in the source
Description: Inhibition of AR transcriptional activity in AR-positive human 22Rv1 cells harboring ARE14 construct assessed as suppression of NKX3.1 expression at 10 uM after 24 hrs by immunoblot analysis

CWR22R [14] = test: Effect on AR-V7 variant protein expression in AR-positive human 22Rv1 cells harboring ARE14 construct at 10 uM after 24 hrs by immunoblot analysis; type: functional, cell-based
[15] = biological target: T1, Androgen receptor (Homo sapiens); test: Inhibition of AR transcriptional activity in AR-positive human VCaP cells assessed as decrease in PSA protein expression at 20 uM after 48 hrs by immunoblot analysis; type: cell-based
[16] = biological target: T1, Androgen receptor (Homo sapiens); test: Inhibition of AR transcriptional activity in AR-positive human VCaP cells assessed as PSA protein expression at 5 to 20 uM after 24 hrs by immunoblot analysis; type: cell-based
LNCaP [17] = test: Antiproliferative activity against AR-positive human LNCAP cells assessed as growth inhibition measured after 72 hrs by resazurin dye based fluorescence assay; type: functional
PC-3 [18] = test: Antiproliferative activity against AR-negative human PC3 cells assessed as growth inhibition measured after 72 hrs by resazurin dye based fluorescence assay; type: functional; conditions: PC-3, 72 h
[19] = biological target: T1, Androgen receptor (Homo sapiens); test: Inhibition of AR transcriptional activity in AR-positive human VCaP cells assessed as decrease in NKX3.1 protein expression at 20 uM upto 72 hrs by immunoblot analysis; type: cell-based
VCaP [20] = test: Induction of apoptosis in AR-positive human VCaP cells assessed as cleaved PARP level at 5 to 20 uM after 24 hrs by immunoblot analysis; type: functional, cell-based
CWR22R [21] = test: Inhibition of colony formation in AR-positive human 22Rv1 cells harboring ARE14 construct at 1.25 to 20 uM incubated for 10 days by crystal violet staining; type: functional, cell-based
CWR22R [22] = test: Induction of apoptosis in R1881-activated AR-positive human 22Rv1 cells harboring ARE14 construct assessed as cleaved PARP level at 5 to 20 uM after 24 hrs by immunoblot analysis; type: functional, cell-based
PC-3 [23] = test: Antiproliferative activity against AR-negative human PC3 cells assessed as cell viability at 10 uM measured after 72 hrs by resazurin dye based fluorescence assay relative to control; type: functional; conditions: PC-3, 72 h, read-out: Activity
LAPC4 [24] = test: Antiproliferative activity against AR-positive human LAPC4 cells assessed as cell viability at 10 uM measured after 72 hrs by resazurin dye based fluorescence assay relative to control; type: functional; conditions: LAPC4, 72 h, read-out: Activity
LNCaP [25] = test: Antiproliferative activity against AR-positive human LNCAP cells assessed as cell viability at 10 uM measured after 72 hrs by resazurin dye based fluorescence assay relative to control; type: functional; conditions: read-out: Activity
CWR22R [26] = test: Antiproliferative activity against AR-positive human 22Rv1 cells harboring ARE14 construct assessed as cell viability at 10 uM measured after 72 hrs by resazurin dye based fluorescence assay relative to control; type: functional; conditions: 22Rv1, 72 h, read-out: Activity
VCaP [27] = test: Antiproliferative activity against AR-positive human VCaP cells assessed as cell viability at 10 uM measured after 72 hrs by resazurin dye based fluorescence assay relative to control; type: functional; conditions: read-out: Activity

Which viability at 40 µM (LNCaP [1]) does the source give for `COC(=O)c1cnn2c1C[C@]1(C(C)=O)[C@@H](C[C@H]3[C@@H]4CCC5=CC(=O)CC[C@]5(C)[C@H]4CC[C@@]31C)C2` here?
The viability at 40 µM was 77.3%.

What about the viability at 40 µM (LAPC4 [2]) of the same molecule?
The viability at 40 µM was 95.1%.

What about the inhibition [3] of the same molecule?
The inhibition was “Active”.

What about the inhibition [4] of the same molecule?
Its inhibition is “Dose-dependent effect”.

And the GI50 (LAPC4 [5])?
The GI50 was > 40 µM.

What about the GI50 (CWR22R [6]) of the same molecule?
Its GI50 is > 40 µM.

And the GI50 (VCaP [7])?
Its GI50 is > 40 µM.

And the viability at 40 µM (PC-3 [8])?
The viability at 40 µM was 98.3%.

What about the inhibition [9] of the same molecule?
The inhibition was “inactive”.

And the viability at 40 µM (CWR22R [10])?
The viability at 40 µM was 80.4%.

What about the Activity [11] of the same molecule?
The Activity was 40%.

What about the viability at 40 µM (VCaP [12]) of the same molecule?
The viability at 40 µM was 85.1%.

What about the inhibition [13] of the same molecule?
The inhibition was “Active”.

And the Activity (CWR22R [14])?
The Activity was “inactive”.

What about the inhibition [15] of the same molecule?
The inhibition was “Active”.

And the inhibition [16]?
Its inhibition is “inactive”.

What about the GI50 (LNCaP [17]) of the same molecule?
The GI50 was > 40 µM.

What about the GI50 (PC-3 [18]) of the same molecule?
Its GI50 is > 40 µM.

And the inhibition [19]?
The inhibition was “Active”.

And the Activity (VCaP [20])?
Its Activity is “Active”.

And the inhibition (CWR22R [21])?
Its inhibition is “Active”.

And the Activity (CWR22R [22])?
Its Activity is “Active”.

`C[C@]12CC[C@H](O)CC1=CC[C@@H]1[C@@H]2CC[C@]2(C)C(n3cnc4ccccc43)=CC[C@@H]12` [GALETERONE] was tested. Which viability at 10 µM (PC-3 [23]) did it give?
Its viability at 10 µM is > 100%.

What about the viability at 10 µM (LAPC4 [24]) of the same molecule?
Its viability at 10 µM is 92.8%.

What about the viability at 10 µM (LNCaP [25]) of the same molecule?
Its viability at 10 µM is 91.6%.

And the viability at 10 µM (CWR22R [26])?
The viability at 10 µM was > 100%.

What about the Activity (VCaP [20]) of the same molecule?
Its Activity is “Active”.

And the Activity (CWR22R [22])?
The Activity was “Active”.

And the viability at 10 µM (VCaP [27])?
Its viability at 10 µM is 72.9%.

Source: ChEMBL document CHEMBL4364252, “Tetrahydropyrazolo[1,5-a]pyridine-fused steroids and their in vitro biological evaluation in prostate cancer” (2019)
